Reference: the NIST ThermoML archive (doi:10.1016/j.jct.2015.08.033)
Numbers after ± are expanded uncertainties.

Experiment: mn = molality of the nth substance listed, in mol/kg
Conditions: 100 kPa, Liquid; for speed of sound: Frequency=3 MHz, Sing-around technique in a fixed-path interferometer; for mass density: Vibrating tube method

O=S(=O)([O-])C(F)(F)F.O=S(=O)([O-])C(F)(F)F.[Ca+2] [calcium trifluoromethanesulfonate] + CN(C)C=O
Conditions | mass density, 298.15 K [kg/m3] | mass density, 303.15 K [kg/m3] | mass density, 308.15 K [kg/m3] | mass density, 313.15 K [kg/m3] | mass density, 318.15 K [kg/m3] | speed of sound, 298.15 K [m/s] | speed of sound, 303.15 K [m/s] | speed of sound, 308.15 K [m/s] | speed of sound, 313.15 K [m/s] | speed of sound, 318.15 K [m/s]
m1 = 0.01106 | 946.239 ± 0.44 | 941.472 ± 0.44 | 936.692 ± 0.44 | 931.892 ± 0.44 | 927.09 ± 0.44 | 1457.3 ± 1.3 | 1438.1 ± 1.3 | 1418.8 ± 1.3 | 1399.6 ± 1.3 | 1380.3 ± 1.3
m1 = 0.01878 | 947.845 ± 0.44 | 943.075 ± 0.44 | 938.305 ± 0.44 | 933.505 ± 0.44 | 928.705 ± 0.44 | 1457.4 ± 1.3 | 1438.2 ± 1.3 | 1418.9 ± 1.3 | 1399.7 ± 1.3 | 1380.6 ± 1.3
m1 = 0.02772 | 949.696 ± 0.43 | 944.925 ± 0.43 | 940.169 ± 0.43 | 935.363 ± 0.43 | 930.568 ± 0.43 | 1457.4 ± 1.3 | 1438.3 ± 1.3 | 1419 ± 1.3 | 1399.9 ± 1.3 | 1380.8 ± 1.3
m1 = 0.03952 | 952.113 ± 0.43 | 947.355 ± 0.43 | 942.581 ± 0.43 | 937.793 ± 0.43 | 932.985 ± 0.43 | 1457.4 ± 1.3 | 1438.3 ± 1.3 | 1419.2 ± 1.3 | 1400.1 ± 1.3 | 1381.1 ± 1.3
m1 = 0.05628 | 955.509 ± 0.43 | 950.747 ± 0.43 | 945.976 ± 0.43 | 941.193 ± 0.43 | 936.398 ± 0.43 | 1457.5 ± 1.3 | 1438.3 ± 1.3 | 1419.2 ± 1.3 | 1400.2 ± 1.3 | 1381.2 ± 1.3
m1 = 0.06961 | 958.2 ± 0.42 | 953.444 ± 0.42 | 948.677 ± 0.42 | 943.893 ± 0.42 | 939.103 ± 0.42 | 1457.3 ± 1.3 | 1438.3 ± 1.3 | 1419.3 ± 1.3 | 1400.3 ± 1.3 | 1381.4 ± 1.3
m1 = 0.08918 | 962.098 ± 0.42 | 957.344 ± 0.42 | 952.579 ± 0.42 | 947.802 ± 0.42 | 943.015 ± 0.42 | 1457.1 ± 1.3 | 1438.2 ± 1.3 | 1419.2 ± 1.3 | 1400.3 ± 1.3 | 1381.5 ± 1.3
m1 = 0.1114 | 966.493 ± 0.41 | 961.744 ± 0.41 | 956.98 ± 0.42 | 952.205 ± 0.42 | 947.419 ± 0.42 | 1456.8 ± 1.3 | 1438 ± 1.3 | 1419.1 ± 1.3 | 1400.3 ± 1.3 | 1381.6 ± 1.3
m1 = 0.1344 | 971.012 ± 0.41 | 966.262 ± 0.41 | 961.501 ± 0.41 | 956.728 ± 0.41 | 951.947 ± 0.41 | 1456.6 ± 1.3 | 1437.8 ± 1.3 | 1419 ± 1.3 | 1400.3 ± 1.3 | 1381.6 ± 1.3
m1 = 0.1671 | 977.356 ± 0.41 | 972.601 ± 0.41 | 967.839 ± 0.41 | 963.068 ± 0.41 | 958.29 ± 0.41 | 1456.4 ± 1.3 | 1437.6 ± 1.3 | 1418.8 ± 1.3 | 1400.2 ± 1.3 | 1381.6 ± 1.3

[Ba+2].[O-][Cl+3]([O-])([O-])[O-].[O-][Cl+3]([O-])([O-])[O-] [barium perchlorate] + CC(=O)N(C)C
Conditions | mass density, 298.15 K [kg/m3] | mass density, 303.15 K [kg/m3] | mass density, 308.15 K [kg/m3] | mass density, 313.15 K [kg/m3] | mass density, 318.15 K [kg/m3] | speed of sound, 298.15 K [m/s] | speed of sound, 303.15 K [m/s] | speed of sound, 308.15 K [m/s] | speed of sound, 313.15 K [m/s] | speed of sound, 318.15 K [m/s]
m1 = 0.01314 | 939.723 ± 0.54 | 935.116 ± 0.54 | 930.504 ± 0.54 | 925.882 ± 0.54 | 921.254 ± 0.55 | 1457.2 ± 1.3 | 1437.5 ± 1.3 | 1417.7 ± 1.3 | 1398.1 ± 1.3 | 1378.6 ± 1.3
m1 = 0.02301 | 942.289 ± 0.54 | 937.692 ± 0.54 | 933.085 ± 0.54 | 928.469 ± 0.54 | 923.849 ± 0.54 | 1458 ± 1.3 | 1438.3 ± 1.3 | 1418.6 ± 1.3 | 1399.1 ± 1.3 | 1379.6 ± 1.3
m1 = 0.03274 | 944.807 ± 0.53 | 940.214 ± 0.53 | 935.612 ± 0.53 | 931.002 ± 0.54 | 926.384 ± 0.54 | 1458.8 ± 1.3 | 1439.2 ± 1.3 | 1419.5 ± 1.3 | 1400 ± 1.3 | 1380.6 ± 1.3
m1 = 0.04665 | 948.382 ± 0.53 | 943.793 ± 0.53 | 939.196 ± 0.53 | 934.591 ± 0.53 | 929.98 ± 0.53 | 1459.9 ± 1.3 | 1440.4 ± 1.3 | 1420.8 ± 1.3 | 1401.4 ± 1.3 | 1382 ± 1.3
m1 = 0.06587 | 953.282 ± 0.53 | 948.701 ± 0.53 | 944.112 ± 0.53 | 939.515 ± 0.53 | 934.912 ± 0.53 | 1461.4 ± 1.3 | 1441.9 ± 1.3 | 1422.5 ± 1.3 | 1403.1 ± 1.3 | 1383.8 ± 1.3
m1 = 0.08329 | 957.7 ± 0.52 | 953.122 ± 0.52 | 948.539 ± 0.53 | 943.99 ± 0.53 | 939.4 ± 0.53 | 1462.7 ± 1.3 | 1443.3 ± 1.3 | 1423.9 ± 1.3 | 1405 ± 1.3 | 1385.8 ± 1.3
m1 = 0.1042 | 963.001 ± 0.52 | 958.419 ± 0.52 | 953.839 ± 0.52 | 949.253 ± 0.52 | 944.664 ± 0.52 | 1464.5 ± 1.3 | 1445 ± 1.3 | 1425.7 ± 1.3 | 1406.5 ± 1.3 | 1387.4 ± 1.3
m1 = 0.1312 | 969.764 ± 0.52 | 965.202 ± 0.52 | 960.631 ± 0.52 | 956.055 ± 0.52 | 951.474 ± 0.52 | 1466.2 ± 1.3 | 1447 ± 1.3 | 1427.8 ± 1.3 | 1408.8 ± 1.3 | 1389.8 ± 1.3
m1 = 0.1609 | 977.195 ± 0.51 | 972.637 ± 0.51 | 968.076 ± 0.51 | 963.509 ± 0.51 | 958.937 ± 0.51 | 1468.4 ± 1.3 | 1449.3 ± 1.3 | 1430.3 ± 1.3 | 1411.3 ± 1.3 | 1392.5 ± 1.3
m1 = 0.1965 | 985.908 ± 0.51 | 981.362 ± 0.51 | 976.808 ± 0.51 | 972.249 ± 0.51 | 967.689 ± 0.51 | 1470.8 ± 1.3 | 1451.9 ± 1.3 | 1432.9 ± 1.3 | 1414.1 ± 1.3 | 1395.4 ± 1.3
